According to patent publication US20120270928A1, “MICRORNA COMPOUNDS AND METHODS FOR MODULATING MIR-21 ACTIVITY” (REGULUS THERAPEUTICS INC., priority 2011, published 2012):
“And” between values parts separate entries of the source, which are not always exact repeats. Equal values may be shown once.

Key:
[1] = system: UUO model of kidney fibrosis; assay: Unilateral ureteral obstruction (UUO) model of kidney fibrosis: kidney collagen 1A1 and collagen 3A1 expression by real-time PCR; assay type: in vivo, mice; settings: UUO
Experimental: Unilateral ureteral obstruction (UUO) is a well-established experimental model of renal injury leading to interstitial fibrosis, and thus is used as an experimental model that is reflective of human kidney disease. UUO is induced by surgically ligating a single ureter. As fibrosis is characterized by an increase in collagen, the presence and extent of kidney fibrosis may be determined by measuring collagen content. Both collagen 1A1 (Col 1A1) and collagen 3A1 (Col 3A1) are measured to assess collagen content. Kidney fibrosis may be visualized by staining tissue samples with picro-sirius red to detect increases in collagen content. Kidney fibrosis may also be observed by measuring the amount of hydroxyproline, which is a major component of collagen, in a sample.
The cEt-containing anti-miR-21 compounds found to be active in the luciferase assay were tested in the UUO model of kidney fibrosis. 25919 comprising 2′-MOE and 2′-fluoro modifications is known to inhibit miR-21 activity in vivo and was included as a positive control. Groups of 8 animals each were treated as follows: UUO only, UUO with PBS, or UUO with anti-miR-21 compound. Relative to the day of the UUO procedure, PBS or anti-miR-21 compound was administered at days −3, −1, and +5. Anti-miR-21 compounds were administered at a dose of 20 mg/kg. As the anti-miR compounds were administered prior to the UUO procedure, this dosing regimen is considered a prophylactic treatment. At day 11, animals were sacrificed and kidney was isolated for measurement of collagen expression. Collagen expression was measured by real-time PCR and normalized first to GAPDH and then to the sham control animals.
The UUO study was repeated to confirm the activity of 25070. The anti-miR was administered subcutaneously at a dose of 20 mg/kg.
(§1) Control treatment groups included UUO only (sham) and UUO with PBS administered subcutaneously. An additional control group included UUO with Tween-MC/20 carrier perorally. 25070 administered subcutaneously at dose of 20 mg/kg at 5 days prior to, 2 days prior to, and 3 days after, the UUO procedure. Irbesartan was administered perorally on daily on days 0 through 7 following the UUO procedure. Animals were sacrificed on Day 10 following the UUO procedure. Kidney tissue was collected for measurement of collagen 1A1 and collagen 3A1 expression.
Compounds 25220 and 25221, as well as 25923, were tested in the UUO model for their effects on fibrosis. Groups of 8 animals each were treated as follows: sham surgery, UUO with PBS, UUO with 25220, UUO with 25221, or UUO with 25923. Relative to the day of the UUO procedure, PBS or anti-miR-21 compound was administered at days −5, −3, and +3. Anti-miR-21 compounds were administered at a dose of 20 mg/kg. As the anti-miR compounds were administered prior to the UUO procedure, this dosing regimen is considered a prophylactic treatment. At day 10, animals were sacrificed and kidney was isolated for measurement of collagen expression. Collagen expression was measured by real-time PCR and normalized to GAPDH.

[2] = system: UUO model of kidney fibrosis; assay: UUO model: collagen area fraction of kidney tissue (picrosirius red histology); assay type: in vivo, mice; settings: Table N, 25070 20 mg/kg s.c.
Experimental: as §1
The ‘collagen area fraction’ is measured histologically through quantitative image processing of the area of kidney tissue that is stained red by the picrosirius red stain; the percent detected as red is normalized by the area of kidney section.

[3] = system: miR-21; assay: miR-21 luciferase sensor assay in Hela cells; assay type: cell-based
Experimental: The compounds were assessed for miR-21 inhibitory activity in a luciferase assay. A microRNA luciferase sensor construct was engineered using pGL3-MCS2 (Promega). The construct was introduced into Hela cells to test the ability of anti-miR compounds to inhibit activity of miR-21. In this assay, miR-21 present in the Hela cells binds to its cognate site(s) in the luciferase sensor construct, and suppresses luciferase expression. When the appropriate anti-miR is introduced into the cells, it binds to miR-21 and relieves suppression of luciferase expression. Thus, in this assay anti-miRs that are effective inhibitors of miR-21 expression will cause an increase in luciferase expression.
Hela cells (ATCC), stably transfected with a luciferase construct engineered to contain a sequence complementary of miR-21, were seeded in T-170 flasks (BD Falcon) at 3.5*10^6 cells/flask. Hela cells were grown in Dulbecco's Modified Eagle Medium with High Glucose (Invitrogen).
Each flask of Hela cells was transfected with 0.5 ug of a phRL sensor plasmid (Promega) expressing Renilla to be used in normalization. Hela cells were transfected using 20 ul Lipofectamine 2000/flask (Invitrogen). After 4 hours of transfection, cells were washed with PBS and trypsinized Hela cells were plated at 40 k/well in 24 well plates (BD Falcon) and left overnight.
Hela cells were transfected with anti-miRs using Lipofectin (Invitrogen) at 2.5 ul Lipofectin/100 nM ASO/ml Opti-MEM I Reduced Serum Medium (Invitrogen) for 4 hours. After ASO transfection, Hela cells were refed with Dulbecco's Modified Eagle Medium with High Glucose (Invitrogen).
Hela cells are passively lysed and luciferase activity measured using the Dual-Luciferase Reporter Assay System (Promega).
The luciferase assay was performed to test the ability of anti-miRs with the nucleoside patterns described herein to inhibit the activity of miR-21. Results were compared to a ‘mock’ treatment, in which cells received no anti-miR treatment. The experiment was repeated and results of two experimental replicates are shown in the following Table B, as the luciferase value normalized to beta-galactosidase activity.
The luciferase assay was performed as described herein to test the ability of anti-miRs in Table F to inhibit the activity of miR-21. Results were compared to a ‘mock’ treatment, in which cells received no anti-miR treatment. The experiment was repeated and results of two experimental replicates are shown in the following Table D, as fold change in luciferase value relative to the mock treatment.

[4] = system: ischemia reperfusion injury/nephrectomy (IR/Nx) model; assay: Ischemia reperfusion injury/nephrectomy (IR/Nx) model: urinary albumin to creatinine ratio; assay type: in vivo, mouse
Excerpt: An ischemia reperfusion injury/nephrectomy (IR/Nx) model is created in the mouse through temporary unilateral clamping of an artery in one kidney, which leads to tubule damage, inflammation, and fibrosis, followed by removal of the second kidney at a later timepoint. In this model, the acute kidney dysfunction phase is useful to test candidate agents for the treatment of acute kidney injury (i.e. up to about the first 5 days), and the later phases of kidney dysfunction are useful to model chronic fibrosis (i.e. after about the first 5 days).
Unilateral IR was induced for a period of 30 minutes. Treatment groups were as follows: sham IR procedure; IR with PBS administered subcutaneously; IR with mismatched control 25109 administered subcutaneously at a dose of 20 mg/kg; IR with anti-miR-21 compound 25070 administered subcutaneously at a dose of 20 mg/kg; and IR with anti-miR-21 compound 25923 administered subcutaneously at a dose of 20 mg/kg. PBS or anti-miR was administered on days 2, 3, 4, and 8 following IR. On day 8, the healthy kidney was removed by nephrectomy from each animal, and animals were sacrificed on day 9. Just prior to sacrifice, urine was collected by direct bladder puncture.
Urinary albumin to creatinine ratio was measured in the urine from each mouse. […] The geometric mean of the albumin to creatinine ratio in each group of mice was 16 μgAlb/mgCr (nephrectomy-only control), 127 μgAlb/mgCr (IR/Nx, PBS control), 140 μgAlb/mgCr (IR/Nx, 25109 control), 40 μgAlb/mgCr (IR/Nx, 25070), and 31 μgAlb/mgCr (IR/Nx, 25923). Blood urea nitrogen and serum creatinine levels were similar across all IR/Nx mice, and were elevated relative to nephrectomy-only control mice (data not shown).

[5] = Table M, individual animals, 25070 20 mg/kg s.c. 5 and 2 days prior to and 3 days after UUO, irbesartan PO daily days 0-7, sacrifice Day 10, 20 mg/kg
[6] = 20 mg/kg at days -5, -3, +3, kidney at day 10

Compound | Collagen 3A1 (Normalized Expression) Mean ([1]; Table M, group mean, 25070 20 mg/kg s.c., irbesartan PO daily days 0-7, Day 10, UUO-PBS 93.2, Tween/MC vehicle 132.4) | Collagen 1A1 (Normalized Expression) Mean ([1]; Table M, group mean, 25070 20 mg/kg s.c., irbesartan PO daily days 0-7, Day 10, UUO-PBS 129.6, Tween/MC vehicle 150.2) | Collagen 1A1 (Normalized Expression) [1, 5] | Collagen 3A1 (Normalized Expression) [1, 5] | reduction in Col3a1 expression (significance) ([1]; comparison with irbesartan, sacrifice Day 10) | reduction in Col1A1 expression relative to saline-treated animals (significance) ([1]; comparison with irbesartan, sacrifice Day 10, p<0.05 by one-way ANOVA) | Collagen Area Fraction (%) Mean ([2]; group mean, irbesartan PO, Day 10, UUO-PBS 11.1, Tween/MC vehicle 8.0) [%] | Collagen Area Fraction (%) ([2]; individual animals, irbesartan PO daily days 0-7, Day 10, picrosirius red, 20 mg/kg) | inhibition of miR-21 activity in the luciferase assay (in words) ([3]; Hela cells) | fold change in luciferase value relative to the mock treatment ([3]; concentration of anti-miR compound 0.2 (unit not given)) [fold change] | fold change in luciferase value relative to the mock treatment ([3]; concentration of anti-miR compound 0.6 (unit not given)) [fold change] | fold change in luciferase value relative to the mock treatment ([3]; concentration of anti-miR compound 1.9 (unit not given)) [fold change] | fold change in luciferase value relative to the mock treatment ([3]; concentration of anti-miR compound 5.6 (unit not given)) [fold change] | fold change in luciferase value relative to the mock treatment ([3]; concentration of anti-miR compound 16.7 (unit not given)) [fold change] | fold change in luciferase value relative to the mock treatment ([3]; concentration of anti-miR compound 50.0 (unit not given)) [fold change] | collagen 1A1 expression (FIG. 2A, in words) [1, 6] | collagen 3A1 expression (FIG. 2B, in words) [1, 6] | reduction in urinary albumin to creatinine ratio (significance) ([4]; 20 mg/kg subcutaneously on days 2, 3, 4, and 8) | geometric mean of the urinary albumin to creatinine ratio ([4]; 20 mg/kg subcutaneously on days 2, 3, 4, and 8, urine on day 9) [μgAlb/mgCr]
CCCCC1=NC2(CCCC2)C(=O)N1Cc1ccc(-c2ccccc2-c2nnn[nH]2)cc1 [irbesartan, reference compound] | 73.2 | 117.8 | 125.4 and 86.7 and 106.6 and 110.7 and 198.3 and 92.2 and 118.1 and 104.1 | 65.5 and 63.8 and 63.2 and 50.8 and 63.6 and 82.8 and 122.5 | statistically significant reductions | did not yield a statistically significant reduction | 8.0 | 6.105% and 7.481% and 15.877% and 7.914% and 6.614% and 5.706% and 7.798% and 6.154% |  |  |  |  |  |  |  |  |  |  | 
AECSATCSAGTCSTGAUSAAGCSTAS (antisense ACATCAGTCTGATAAGCTA; cEt and 2'-MOE nucleosides, code letters not given here, further chemistry not given here) [Compound 25923, variation of 25070: 3′-terminal nucleoside is a cEt nucleoside rather than 2′-MOE nucleoside] |  |  |  |  |  |  |  |  | inhibition of miR-21 in a dose-dependent manner | 1.06 | 1.01 | 1.10 | 5.18 | 11.34 | 10.81 | reduced collagen 1A1 and collagen 3A1 expression by a stastically significant amount | reduced collagen 1A1 and collagen 3A1 expression by a stastically significant amount | statistically significant reductions | 31
